Results as given in ChEMBL document CHEMBL4130445, “TNF-α and IL-6 inhibitors: Conjugates of N-substituted indole and aminophenylmorpholin-3-one as anti-inflammatory agents” (Eur J Med Chem, 2017).
Activity calls are given as the source filed them. The calls are words filed in the database; no cut-off is given here.

Assays:
[1] = Cytotoxicity in mouse BV2 cells assessed as cell viability at 60 uM incubated for 48 hrs by MTT assay (reference value: 100%); assay type: cell-based, BV-2; conditions: read-out: Activity
[2] = system: BV-2; experiment: Suppression of LPS-induced morphological changes in mouse BV2 cells at 5 uM pre-incubated before LPS stimulation by phase contrast microscopy; assay type: functional, cell-based
[3] = system: Mus musculus; experiment: Analgesic activity in Swiss albino mouse model of acetic acid induced writhing assessed as inhibition of pain response at 10 mg/kg, ip dosed 30 mins before acetic acid injection; assay type: functional
[4] = system: Mus musculus; experiment: Toxicity in Swiss albino mouse model of acetic acid induced writhing up to 2000 mg/kg, ip dosed 30 mins before acetic acid injection; assay type: organism-based; conditions: in vivo, 0.5 h
[5] = Cytotoxicity in mouse BV2 cells assessed as cell viability at 80 uM incubated for 48 hrs by MTT assay (reference value: 100%); assay type: cell-based, BV-2; conditions: read-out: Activity
[6] = system: BV-2; experiment: Inhibition of LPS-induced MMP9 production production in mouse BV2 cells assessed as MMP9 protein level pre-incubated before LPS stimulation by gelatin zymography (reference value: 105.113%); assay type: functional; parameters: scale not given: the % may be the effect or the level left
[7] = system: BV-2; experiment: Inhibition of LPS-induced MMP2 production production in mouse BV2 cells assessed as MMP2 protein level pre-incubated before LPS stimulation by gelatin zymography (reference value: 105.071%); assay type: functional; parameters: scale not given: the % may be the effect or the level left
[8] = species on record: Mus musculus; experiment: Inhibition of LPS-induced NFkappaB nuclear translocation in mouse BV2 cells pre-incubated before LPS stimulation by immunostaining based confocal laser microscopy; assay type: cell-based
[9] = Cytotoxicity in mouse BV2 cells assessed as cell viability at 5 uM incubated for 48 hrs by MTT assay (reference value: 100%); assay type: cell-based, BV-2; conditions: read-out: Activity
[10] = system: BV-2; experiment: Inhibition of LPS-induced nitric oxide production in mouse BV2 cells assessed as nitric oxide level at 10 uM pre-incubated before LPS stimulation by Griess reagent based assay (reference value: 121.09%); assay type: functional; parameters: scale not given: the % may be the effect or the level left
[11] = system: BV-2; experiment: Inhibition of LPS-induced TNFalpha production in mouse BV2 cells at 20 uM pre-incubated before LPS stimulation by ELISA; assay type: functional
[12] = target: Transcription factor Jun (Mus musculus) (UniProt P05627); experiment: Inhibition of LPS-induced AP1 nuclear translocation in mouse BV2 cells pre-incubated before LPS stimulation by immunostaining based confocal laser microscopy; assay type: cell-based
Sequence of Transcription factor Jun (Mus musculus) (P05627 whole entry): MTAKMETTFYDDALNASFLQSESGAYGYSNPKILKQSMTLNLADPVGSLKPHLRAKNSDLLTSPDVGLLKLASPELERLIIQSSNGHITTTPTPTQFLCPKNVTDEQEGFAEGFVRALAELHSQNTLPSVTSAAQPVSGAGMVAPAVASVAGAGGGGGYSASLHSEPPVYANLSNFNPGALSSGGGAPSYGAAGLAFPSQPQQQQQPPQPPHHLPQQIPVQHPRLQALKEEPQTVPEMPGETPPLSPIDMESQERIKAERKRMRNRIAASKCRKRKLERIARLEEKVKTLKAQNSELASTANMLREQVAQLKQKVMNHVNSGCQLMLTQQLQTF

[13] = system: BV-2; experiment: Inhibition of LPS-induced TNFalpha production in mouse BV2 cells assessed as TNFalpha level at 20 uM pre-incubated before LPS stimulation by ELISA (reference value: 142.71%); assay type: functional; parameters: scale not given: the % may be the effect or the level left
[14] = system: BV-2; experiment: Inhibition of LPS-induced IL6 production in mouse BV2 cells assessed as IL6 level at 10 uM pre-incubated before LPS stimulation by ELISA (reference value: 146.75%); assay type: functional; parameters: scale not given: the % may be the effect or the level left
[15] = system: BV-2; experiment: Suppression of LPS-induced morphological changes in mouse BV2 cells at 10 uM pre-incubated before LPS stimulation by phase contrast microscopy; assay type: functional, cell-based
[16] = system: BV-2; experiment: Inhibition of LPS-induced nitric oxide production in mouse BV2 cells assessed as nitric oxide level at 20 uM pre-incubated before LPS stimulation by Griess reagent based assay (reference value: 121.09%); assay type: functional; parameters: scale not given: the % may be the effect or the level left
[17] = Cytotoxicity in mouse BV2 cells assessed as cell viability at 15 uM incubated for 48 hrs by MTT assay (reference value: 100%); assay type: cell-based, BV-2; conditions: read-out: Activity
[18] = Cytotoxicity in mouse BV2 cells assessed as cell viability at 100 uM incubated for 48 hrs by MTT assay (reference value: 100%); assay type: cell-based, BV-2; conditions: read-out: Activity
[19] = target: T1, Prostaglandin G/H synthase 2 (Homo sapiens) (UniProt P35354); experiment: Inhibition of COX2 (unknown origin) by immunoassay
T1 sequence (whole entry): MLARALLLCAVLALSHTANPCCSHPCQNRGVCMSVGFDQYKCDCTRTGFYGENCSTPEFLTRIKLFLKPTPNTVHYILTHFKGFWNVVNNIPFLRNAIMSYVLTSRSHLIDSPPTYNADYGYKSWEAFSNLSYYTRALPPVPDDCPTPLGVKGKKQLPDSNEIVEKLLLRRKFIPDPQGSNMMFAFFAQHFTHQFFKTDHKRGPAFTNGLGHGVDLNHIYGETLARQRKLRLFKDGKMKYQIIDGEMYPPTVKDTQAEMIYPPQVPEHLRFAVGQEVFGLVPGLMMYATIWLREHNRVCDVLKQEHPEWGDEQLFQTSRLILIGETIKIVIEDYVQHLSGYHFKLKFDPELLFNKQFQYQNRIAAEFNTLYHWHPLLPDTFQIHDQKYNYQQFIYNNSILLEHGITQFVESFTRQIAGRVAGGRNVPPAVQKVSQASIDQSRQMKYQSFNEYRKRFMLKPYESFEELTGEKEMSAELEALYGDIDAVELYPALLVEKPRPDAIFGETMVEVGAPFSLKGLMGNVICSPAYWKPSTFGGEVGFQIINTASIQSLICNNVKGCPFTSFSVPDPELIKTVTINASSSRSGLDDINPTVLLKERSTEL

[20] = system: BV-2; experiment: Cytotoxicity in mouse BV2 cells assessed as reduction in cell viability incubated for 48 hrs by MTT assay; assay type: cell-based; conditions: BV-2, 48 h
[21] = Cytotoxicity in mouse BV2 cells assessed as cell viability at 1 uM incubated for 48 hrs by MTT assay (reference value: 100%); assay type: cell-based, BV-2; conditions: read-out: Activity
[22] = system: BV-2; experiment: Inhibition of LPS-induced MMP9 production production in mouse BV2 cells pre-incubated before LPS stimulation by gelatin zymography; assay type: functional, cell-based
[23] = system: BV-2; experiment: Inhibition of LPS-induced IL6 production in mouse BV2 cells assessed as IL6 level at 20 uM pre-incubated before LPS stimulation by ELISA (reference value: 146.75%); assay type: functional; parameters: scale not given: the % may be the effect or the level left
[24] = Cytotoxicity in mouse BV2 cells assessed as cell viability at 20 uM incubated for 48 hrs by MTT assay (reference value: 100%); assay type: cell-based, BV-2; conditions: read-out: Activity
[25] = Cytotoxicity in mouse BV2 cells assessed as cell viability at 0.5 uM incubated for 48 hrs by MTT assay (reference value: 100%); assay type: cell-based, BV-2; conditions: read-out: Activity
[26] = system: BV-2; experiment: Inhibition of LPS-induced IL6 production in mouse BV2 cells at 10 uM pre-incubated before LPS stimulation by ELISA; assay type: functional
[27] = system: BV-2; experiment: Inhibition of LPS-induced TNFalpha production in mouse BV2 cells assessed as TNFalpha level at 10 uM pre-incubated before LPS stimulation by ELISA (reference value: 142.71%); assay type: functional; parameters: scale not given: the % may be the effect or the level left
[28] = system: BV-2; experiment: Inhibition of LPS-induced MMP2 production production in mouse BV2 cells pre-incubated before LPS stimulation by gelatin zymography; assay type: functional, cell-based
[29] = Cytotoxicity in mouse BV2 cells assessed as cell viability at 40 uM incubated for 48 hrs by MTT assay (reference value: 100%); assay type: cell-based, BV-2; conditions: read-out: Activity
[30] = system: BV-2; experiment: Inhibition of LPS-induced IL6 production in mouse BV2 cells at 20 uM pre-incubated before LPS stimulation by ELISA; assay type: functional
[31] = Cytotoxicity in mouse BV2 cells assessed as cell viability at 10 uM incubated for 48 hrs by MTT assay (reference value: 100%); assay type: cell-based, BV-2; conditions: read-out: Activity
[32] = system: BV-2; experiment: Inhibition of LPS-induced TNFalpha production in mouse BV2 cells at 10 uM pre-incubated before LPS stimulation by ELISA; assay type: functional

O=C1COCCN1c1ccc(/N=C\c2cn(C(=O)c3ccc(Cl)cc3)c3ccccc23)cc1
viability at 48 h, 60 µM [1]: 84.2% | Activity [2]: Active | inhibition in vivo at 10 mg/kg [3]: 74.9% | Activity [4]: Non-Toxic | viability at 48 h, 80 µM [5]: 90.3% | Activity [6]: 89.261% | Activity [7]: 84.884% | inhibition [8]: Active | viability at 48 h, 5 µM [9]: 93.6% | Activity [10]: 100.905% | inhibition at 20 µM [11]: 70.9% | inhibition [12]: Active | Activity [13]: 41.58% | Activity [14]: 76.51% | Activity [15]: Active | Activity [16]: 100.905% | viability at 48 h, 15 µM [17]: 105% | viability at 48 h, 100 µM [18]: 80.5% | inhibition [19]: inactive | IC50 [20]: > 100 µM | viability at 48 h, 1 µM [21]: 97.6% | inhibition [22]: Active | Activity [23]: 69.12% | viability at 48 h, 20 µM [24]: 99% | viability at 48 h, 0.5 µM [25]: 95.2% | inhibition at 10 µM [26]: 47.9% | Activity [27]: 56.34% | inhibition [28]: Active | viability at 48 h, 40 µM [29]: 96.6% | inhibition at 20 µM [30]: 52.9% | viability at 48 h, 10 µM [31]: 90.1% | inhibition at 10 µM [32]: 60.5%
